Reference: patent US11253497B2, “Use of derivatives of polyunsaturated fatty acids as medicaments” (Lipopharma Therapeutics, S.L., priority 2009, dated 2022)

What was measured:
[1] = test system: Spontaneously Hypertensive Rats (SHR); assay: Blood pressure of SHR rats (cuff-tail method); type: in vivo, rat; details: 200 mg/kg day p.o., 30 days, before treatment 214 mmHg
Description: (§1) In a separate experimental series, it was studied the effect of D-PUFA molecules of the present invention on blood pressure of SHR rats. In these animals both, blood pressure and levels of apolipoprotein AI (apoA-I) were measured. For these experiments Spontaneously Hypertensive Rats (SHR) were treated for 30 days with vehicle (water control) or compounds of the invention (200 mg/kg day, p.o.). At the end of this period, the animals' blood pressure and serum levels of apoA-I were measured. […] For these experiments, non-invasive methods for determining blood pressure (cuff-tail method) and gene expression for apoA-I (RT-PCR) described in the literature (Terés et al., 2008) were used. The usefulness of the molecules of the present invention for the treatment of cardiovascular diseases is reinforced by its capacity for reducing the levels of serum cholesterol and triglycerides (see below).
(§2) The average values of SHR before treatment were 214 mmHg and 100% respectively.

[2] = test system: breast cancer cells MDA-MB-231; assay: Growth of breast cancer cells MDA-MB-231; type: cell-based; details: 72 hours of incubation
Description: (§3) For the experiments shown in FIG. 1, cultured human Non Small Cell Lung Cancer cells (A549) in RPMI 1640 were used, supplemented with 10% foetal bovine serum and antibiotics, at 37° C. and 5% CO2. […] After treatment, cell count was performed and the study of the mechanisms involved in the antitumor activity of compounds was evaluated by flow cytometry. […] These values correspond to averages of three independent experiments.
(§4) These charts show the antitumor efficacy of the compounds of this invention against the growth of breast cancer cells, brain (glioma), and lung cancer. […] The other experimental conditions are identical to those described in the preceding paragraph.

[3] = test system: α-synuclein; assay: Expression of α-synuclein in neuronal cultures (cells P19); type: cell-based; details: untreated cells 100%
[4] = Serum cholesterol, triglycerides and glucose in SHR rats (colorimetric); type: in vivo, rat; details: 200 mg/kg daily p.o., 28 days, untreated rats 100%
Description: In a separate experimental series, SHR rats were treated with various compounds of the present invention (200 mg/kg daily, 28 days, p.o.) and the levels of cholesterol, triglycerides and glucose in serum were measured by colorimetric methods. It was observed that these compounds induce significant (and in many cases marked) reductions in the levels of these metabolites (Table 16).
Values are expressed as percent, and in untreated (control) rats values were always considered as 100%.

[5] = test system: COX-2; assay: Expression of COX-2 in LPS-stimulated monocytes in culture; type: cell-based, human; details: positive control with LPS 100%
Description: FIG. 5A also presents a drawing showing the COX-2/COX-1 relationship as % of control (Y axis) for the following compounds (X-axis): OOA (2-hydroxy-oleic acid), OLA (182A1), OALA (183A1), OGLA (183A2), OARA (204A1), OEPA (205A1), ODHA (226A1). […] The reduction of this factor is directly related to the anti-inflammatory medication. The compounds are the same as in the left pane.
(§5) Cyclooxygenase (COX) is an enzyme that can bind to membranes, taking certain lipids from there and catalyze its conversion into molecules that can have inflammatory activity. The binding of this enzyme to membrane lipids is due in part to the membrane lipid structure. The increased activity of COX 1 and 2 isoforms has been associated with the etiopathology of a number of inflammatory diseases by […] arachidonic acid metabolism to produce pro-inflammatory lipid mediators. The D-PUFA compounds of the present invention produced a series of cellular signals that alter the metabolism of arachidonic acid and, as a result, they inhibit the activity and expression of COX in monocytes in culture (Table 14 and FIG. 5A). […] For this purpose, C57BL6/J mice were treated with the various derivatives (200 mg/kg, p.o.,) after inducing an inflammatory reaction in them by intraperitoneal injection of 20 μg of bacterial lipopolysaccharide (LPS).
Inhibition of COX-2 expression in monocytes. Percentages of inhibition (compared to the positive control in the presence of LPS, 100%) of COX-2 protein levels (expression) by the various fatty acid derivatives.

[6] = test system: P19 cells; assay: NMDA-induced neuronal death in P19 cells; type: cell-based; details: NMDA alone 100% death, control without NMDA 0%; negative values = proliferation
[7] = test system: TNF-α; assay: Production of TNF-α in serum of LPS-injected C57BL6/J mice; type: in vivo; details: LPS 20 μg i.p. (100%), 200 mg/kg p.o.
Description: as §5

[8] = test system: apolipoprotein AI (apoA-I); assay: Levels of apoA-I in SHR rats (RT-PCR); type: in vivo, rat; details: 200 mg/kg day p.o., 30 days, before treatment 100%
Description: as §1, §2

[9] = test system: brain cancer cell (glioma) U118; assay: Brain cancer (glioma) U118 cell growth; type: cell-based; details: 72 hours of incubation
Description: For the experiments shown in FIG. 1, cultured human Non Small Cell Lung Cancer cells (A549) in RPMI 1640 were used, supplemented with 10% foetal bovine serum and antibiotics, at 37° C. and 5% CO2. Cells were maintained in culture for 48 hours in the presence or absence of D-PUFAs and PUFAs indicated in Table 2 at a concentration of 250 µM. After treatment, cell count was performed and the study of the mechanisms involved in the antitumor activity of compounds was evaluated by flow cytometry. […] These values correspond to averages of three independent experiments.
as §4

[10] = test system: lung cancer cells A549; assay: Growth of lung cancer cells A549 (IC50); type: cell-based, human; details: 72 hours of incubation
Description: as §3, §4

SMILES	Blood pressure [1] [mm Hg]	IC50 [2] [µM]	Expression of α-synuclein [3] [%]	Cholesterol in serum (top number) [4] [%]	Glucose in serum (bottom number) [4] [%]	Triglycerides in serum (central number) [4] [%]	COX-2 protein levels (expression), percentages of inhibition compared to positive control [5] [%]	Neuronal death (P19 cells) after treatment with NMDA [6] [%]	Production of TNF-α in serum [7] [%]	Levels of apoA-I [8] [%]	IC50 [9] [µM]	IC50 [10] [µM]
CCCCCC=CCC=CCCCCCCC(O)C(=O)OP(=O)(OCC)OCC (stereo not drawn) [182F1]	198	311	71	92	89	88	56	−45	86	192	236	354
CCCCCC=CCC=CCCCCCCC(C)C(=O)[O-].[Na+] (stereo not drawn) [182L1]	207	343	80	89	94	93	67	−32	85	131	229	385
CCCCCC=CCC=CCCCCCCC(OC=O)C(=O)OCC (stereo not drawn) [182V1]	207	442	83	94	93	93	81	−17	81	166	231	340
CCC=CCC=CCC=CCCCCCCC(O)C(=O)OP(=O)(OCC)OCC (stereo not drawn) [183F1]	203	323	61	78	76	71	46	−35	91	146	354	347
CCCCCC=CCC=CCC=CCCCC(O)C(=O)OP(=O)(OCC)OCC (stereo not drawn) [183F2]	191	181	52	84	85	87	36	−36	86	279	401	259
CCC=CCC=CCC=CCCCCCCC(C)C(=O)[O-].[Na+] (stereo not drawn) [183L1]	205	306	76	82	85	77	65	−21	86	125	231	285
